Results: article PMC9511493, “2-(Fluoromethoxy)-4′-(S-methanesulfonimidoyl)-1,1′-biphenyl (UCM-1306), an Orally Bioavailable Positive Allosteric Modulator of the Human Dopamine D1 Receptor for Parkinson’s Disease” (Journal of Medicinal Chemistry, 2022)
“Also recorded” adds a separate entry of the source.

Experiments:
[1] = system: reserpinized C57BL/6 mice; test: locomotor activity in reserpinized mice; type: in vivo, mouse
Description: The study was carried out in male C57BL/6 wild-type (22–25 g) mice that were acclimatized for 5 days. Animals were randomized based on body weight into six groups (G1 to G6), ten animals per group (n = 10), being group G1 the naïve control group. Animals were fed with standard diet ad libitum. Animals were dosed with subcutaneous administration of reserpine (2.5 mg/kg in DMSO/saline) and after 20 h they were treated with a vehicle (10 mL/kg, po), compound 26 (30 mg/kg, po), L-DOPA (100 or 400 mg/kg, ip) + carbidopa (100 mg/kg, ip) and/or their combination, as indicated in Figure 7. The vehicle employed for compound 26 administration was 5% NMP + 5% solutol HS-15 + 90% normal saline. L-DOPA and carbidopa were administered 30 min prior to start of locomotor activity recording. Compound 26 was administered and 15 min later, mice were placed in the locomotor activity cage to measure the locomotor activity for 60 min (total distance travelled) using ALL Maze version 0.5 automated software enabled with video tracking system. After the activity sessions, raw data were reduced using ALL Maze 5.0 software and Microsoft Excel. Statistical analysis was done with GraphPad Prism-5 using one way ANOVA followed by Dunnett’s test/Tukey’s post hoc test and/or two-way ANOVA followed by Bonferroni post hoc test. Data were considered statistically significant, if P value was less than 0.05.

C57BL/6J mice = test: cocaine-induced hyperlocomotion assay; type: in vivo, mouse; conditions: 1 mg/kg ip
Description: The experiment was conducted in adherence to the European Communities Council Directive (86/609/ECC) and Spanish regulations (BOE 252/34367-91, 2005) for the use of laboratory animals. The assay was performed according to a previously reported method[57] using 3 month old male mice with C57BL/6J background, and 8 mice were used for each experimental condition. All mice were handled and habituated to the injection procedures once per day for 5 days prior to behavioral testing. Experiments were carried out between 8:00 and 20:00, and the animals were acclimated to the experimental room for 30 min each day. Performance in the open field was recorded by a computer-based video tracking system (Smart v2.5, Panlab, Barcelona, Spain). Four open fields (50 × 50 × 50 cm, Panlab) with gray backgrounds were used, and the maximum light intensity in the center of the open field was 100 lux. Animals received a dose of 26 (1 mg/kg, ip) in a volume of 20 mL/kg of sterile saline as the vehicle, 15 min prior to a dose of cocaine (20 mg/kg, sc). Five min after cocaine injection, animals were placed in the open field and locomotion was measured at […] along a 30-min period of analysis. Horizontal locomotion was measured as total distance traveled (cm).

[2] = stability in mouse liver homogenate; type: in vitro ADME; conditions: remaining compound after 24 h
Description: HSA binding assay. The assessment of compounds binding to HSA was performed by incubating a fixed concentration of the compound with different concentrations of immobilized HSA, using the TRANSILXL HSA Binding Kit (TMP-0210- 2096, Sovicell). An 8-well unit of the TRANSIL assay plate was used for each compound : six wells contain increasing concentrations of HSA immobilized on silica beads suspended in PBS at pH 7.4, and two wells contain buffer only and serve as references to account for nonspecific binding. The TRANSIL assay plate was thawed for 3 h at rt and centrifuged at 750g for 5 s. […] After this time, the plate was centrifuged at 750gfor 10 min, and 50 μL of the supernatants were transferred for analytical quantification by HPLC-MS using selected ion monitoring (SIM). The binding percentage was calculated from the remaining free compound concentration in the supernatant of each well, using the spreadsheet and algorithms supplied with the kit.
Stability in mouse serum. […] Supernatants were then analyzed by HPLC-MS using SIM mode, and quantification was estimated by using the peak area integration normalized with an internal standard.
Stability assay in mouse liver homogenate. Stability of test compounds and reference compound propranolol was determined by incubation in liver homogenates following previously reported procedure. […]

liver homogenate stability (%) [2]: 65%
Structure (SMILES): CS(=N)(=O)c1ccc(-c2ccccc2OCF)cc1 (stereo not drawn) [Compound 26, 2-(Fluoromethoxy)-4′-(S-methanesulfonimidoyl)-1,1′-biphenyl]
adverse effects observed in the animals ([1]; after oral dose administration, 30 mg/kg): no sign of adverse effects | effect on locomotor activity in combination with L-DOPA ([1]; reserpine 2.5 mg/kg sc, 26 30 mg/kg po plus L-DOPA 100 or 400 mg/kg ip): moderate synergistic effect | recovery of decreased locomotor activity, substance alone ([1]; reserpine 2.5 mg/kg sc, 26 30 mg/kg po, L-DOPA 100 or 400 mg/kg ip): small recovery of decreased locomotor activity | effect on cocaine-induced hyperlocomotion (C57BL/6J mice; 15 min before cocaine 20 mg/kg sc): potentiated the hyperlocomotion induced by cocaine; also recorded: enhanced cocaine (20 mg/kg, sc)-induced hyperlocomotion | intrinsic locomotor activity, compound alone (C57BL/6J mice; no cocaine): no intrinsic locomotor activity
